Experimental data reported in patent US9956225B2, “Treatment of myelodysplastic syndrome” (Boehringer Ingelheim International GmbH, priority 2013, dated 2018).

Legend:
[1] = tested on: human AML cell line MV4;11; assay: Nude mouse xenograft model derived from human AML cell line MV4;11: tumor growth; assay type: in vivo; settings: 21 days, MV4;11 xenograft in nude mice
Description: Tumor-bearing mice were treated for 3 weeks intravenously either with vehicle or once weekly with 10 mg/kg or 20 mg/kg Volasertib (BI 6727), respectively. Median tumor volumes are plotted over time. Day 1 was the first day, day 21 the last day of the experiment. Efficacy results from this xenograft model are considered valid for MDS.
MV4;11 (CRL-9591) cells were obtained from ATCC. According to the Catalogue of Somatic Mutations in Cancer of the Wellcome Trust Sanger Institute, UK, this cell line carries a mutation in the FLT3 gene. Cells were cultured in T175 tissue culture flasks at 37° C. and 5% CO2. The medium used was IMDM supplemented with 10% fetal calf serum, 1% NEAA, 1% sodium pyruvate and 1% glutamine.
Mice were 8-9 week-old athymic female BomTac: NMRI-Foxn1^nu purchased from Taconic, Denmark. After arrival in the animal facility, mice were allowed to adjust to ambient conditions for at least 3 days before they were used for experiments. They were housed in Macrolon® type II cages in groups of 5 under standardized conditions at 21.5±1.5° C. temperature and 55±10% humidity. […]
(§1) The tumor diameter was measured three times a week with a caliper. The volume of each tumor [in mm^3] was calculated according to the formula “tumor volume=length*diameter^2*π/6”. To monitor side effects of treatment, mice were inspected daily for abnormalities and body weight was determined three times a week. […]

[2] = Body weight change in MV4;11 nude mouse xenograft model (side effects); assay type: in vivo; settings: 21 days, tumor-bearing nude mice
Description: Tumor-bearing mice were treated for 3 weeks intravenously either with vehicle or with 10 mg/kg or 20 mg/kg Volasertib, respectively, once weekly. Median changes in body weight compared to day 1 are plotted over time. Day 1 was the first day, day 21 the last day of the experiment.
Mice were 8-9 week-old athymic female BomTac: NMRI-Foxn1^nu purchased from Taconic, Denmark. After arrival in the animal facility, mice were allowed to adjust to ambient conditions for at least 3 days before they were used for experiments. They were housed in Macrolon® type II cages in groups of 5 under standardized conditions at 21.5±1.5° C. temperature and 55±10% humidity. Standardized diet (PROVIMI KLIBA) and autoclaved tap water were provided ad libitum.
Volasertib (BI 6727) was dissolved in hydrochloric acid (0.1 N), diluted with 0.9% NaCl and injected intravenously into the tail vein. An administration volume of 10 ml per kg body weight was used. The solution was freshly made up each injection day.
as §1

In the case of CC[C@@H]1C(=O)N(C)c2cnc(Nc3ccc(C(=O)N[C@H]4CC[C@H](N5CCN(CC6CC6)CC5)CC4)cc3OC)nc2N1C(C)C [Volasertib, N-[trans-4-[4-(cyclopropylmethyl)-1-piperazinyl]cyclohexyl]-4-[[(7R)-7-ethyl-5,6,7,8-tetrahydro-5-methyl-8-(1-methylethyl)-6-oxo-2-pteridinyl]amino]-3-methoxy-benzamide], the “median T/C (ratio of median tumor volume of treated vs. control tumors)” value ([1]; 10 mg/kg once a week i.v.) is reported as 76%, the “median T/C (ratio of median tumor volume of treated vs. control tumors)” value ([1]; 20 mg/kg once a week i.v.) is reported as 38% and the “body weight gain (side effect profile)” value ([2]; 10 mg/kg once a week i.v.) is reported as “body weight gain was comparable to vehicle”. For the same compound, the “body weight gain (side effect profile)” value ([2]; 20 mg/kg once a week i.v.) was “body weight gain was comparable to vehicle”.
